# Like-named read-outs stand apart in the source and are kept apart here.
# Biological target: T1, human APJ receptor (Homo sapiens, UniProt P35414)
# T1 construct: expressed in transfected cells
# T1 sequence (P35414 1-380): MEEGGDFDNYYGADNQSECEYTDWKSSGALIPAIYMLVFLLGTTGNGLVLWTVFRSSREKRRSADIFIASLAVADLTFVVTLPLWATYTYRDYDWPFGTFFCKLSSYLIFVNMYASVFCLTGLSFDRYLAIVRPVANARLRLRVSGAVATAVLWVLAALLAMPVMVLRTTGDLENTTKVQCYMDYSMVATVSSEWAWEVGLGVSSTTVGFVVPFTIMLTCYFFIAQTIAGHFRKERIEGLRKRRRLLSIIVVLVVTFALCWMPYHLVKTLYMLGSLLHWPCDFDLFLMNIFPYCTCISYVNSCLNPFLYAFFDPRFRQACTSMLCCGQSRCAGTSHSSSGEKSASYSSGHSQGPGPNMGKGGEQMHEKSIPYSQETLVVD
# Experiment: Intracellular cAMP accumulation assay (APJ hcAMP, HTRF)
# Type: cell-based
# Details: HEK293 cells stably expressing human APJ receptor
# Method in brief: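 Inhibition of 2 μM forskolin-driven cAMP ([…] present) measured by HTRF in 5,000 HEK293 cells/well stably expressing human APJ, 30 min, room temperature. EC50 came from a variable-slope sigmoidal fit; Ymax was relative to (Pyr1)apelin-13 set at 100%.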
# [1] = Table 1, inhibition of forskolin-mediated cAMP production, read-out: APJ hcAMP EC50
# [2] = Table 2, read-out: APJ cAMP Human EC50
# [3] = Table 3, read-out: APJ cAMP Human EC50
EC50 [1] [nM],EC50 [2] [nM],EC50 [3] [nM],Structure (SMILES)
< 10,< 10,–,"COC[C@@H](NC(=O)c1ccc(-c2cc(Cl)ccc2-c2nc3cc(Cl)ccc3[nH]2)c(C(=O)O)c1)c1ccccc1 [Example 79, 5′-chloro-2′-(5-chloro-1H-1,3-benzodiazol-2-yl)-4-{[(1S)-2-methoxy-1-phenylethyl]carbamoyl}-[1,1′-biphenyl]-2-carboxylic acid]"
< 10,< 10,–,"COC[C@@H](NC(=O)c1ccc(-c2cc(Cl)ccc2-c2nc3cc(C(C)(C)C)ccc3[nH]2)c(C(=O)O)c1)c1ccccc1 [Example 80, 2′-(5-tert-butyl-1H-1,3-benzodiazol-2-yl)-5′-chloro-4-{[(1S)-2-methoxy-1-phenylethyl]carbamoyl}-[1,1′-biphenyl]-2-carboxylic acid]"
–,–,< 10,"CCCC(NC(=O)c1ccc(-c2c(Cl)cccc2-c2nc3cc(OC)c(F)cc3[nH]2)c(C(=O)O)c1)c1ccccc1 [Example 84, (S)-2′-chloro-6′-(6-fluoro-5-methoxy-1H-1,3-benzodiazol-2-yl)-4-{[(1R)-1-phenylbutyl]carbamoyl}-[1,1′-biphenyl]-2-carboxylic acid]"
< 10,–,< 10,"CCCC(NC(=O)c1ccc(-c2c(Cl)cccc2-c2nc3cc(OC)c(OC)cc3[nH]2)c(C(=O)O)c1)c1ccccc1 [Example 93, (S)-2′-chloro-6′-(5,6-dimethoxy-1H-1,3-benzodiazol-2-yl)-4-{[(1R)-1-phenylbutyl]carbamoyl}-[1,1′-biphenyl]-2-carboxylic acid]"
–,–,< 10,"CCCC(NC(=O)c1ccc(-c2c(Cl)cccc2-c2ncc(-c3c(F)ccc(F)c3F)[nH]2)c(C(=O)O)c1)c1ccccc1 [Example 100, (S)-2′-chloro-4-{[(1R)-1-phenylbutyl]carbamoyl}-6′-[5-(2,3,6-trifluorophenyl)-1H-imidazol-2-yl]-[1,1′-biphenyl]-2-carboxylic acid]"
–,–,< 10,"CCCC(NC(=O)c1ccc(-c2c(Cl)cccc2-c2ncc(-c3cccnc3)[nH]2)c(C(=O)O)c1)c1ccccc1 [Example 101, (S)-2′-chloro-4-{[(1R)-1-phenylbutyl]carbamoyl}-6′-[5-(pyridin-3-yl)-1H-imidazol-2-yl]-[1,1′-biphenyl]-2-carboxylic acid]"
10 to 100,–,10 to 100,"COc1cc2[nH]c(-c3cccc(Cl)c3-c3ccc(C(=O)NC(C)C)cc3C(=O)O)nc2cc1F [Example 109, (S)-2′-chloro-6′-(5-fluoro-6-methoxy-1H-1,3-benzodiazol-2-yl)-4-[(propan-2-yl)carbamoyl]-[1,1′-biphenyl]-2-carboxylic acid]"
< 10,–,< 10,"COc1cc2[nH]c(-c3cccc(Cl)c3-c3ccc(C(=O)N4CCC(c5ccccc5)CC4)cc3C(=O)O)nc2cc1F [Example 110, (S)-2′-chloro-6′-(5-fluoro-6-methoxy-1H-1,3-benzodiazol-2-yl)-4-(4-phenylpiperidine-1-carbonyl)-[1,1′-biphenyl]-2-carboxylic acid]"
–,–,< 10,"COCCNC(=O)c1ccc(-c2c(Cl)cccc2-c2nc3cc(F)c(OC)cc3[nH]2)c(C(=O)O)c1 [Example 111, (S)-2′-chloro-6′-(5-fluoro-6-methoxy-1H-1,3-benzodiazol-2-yl)-4-[(2-methoxyethyl)carbamoyl]-[1,1′-biphenyl]-2-carboxylic acid]"
< 10,–,< 10,"COc1cc2[nH]c(-c3cccc(Cl)c3-c3ccc(C(=O)NCCc4ccccc4)cc3C(=O)O)nc2cc1F [Example 112, (S)-2′-chloro-6′-(5-fluoro-6-methoxy-1H-1,3-benzodiazol-2-yl)-4-[(2-phenylethyl)carbamoyl]-[1,1′-biphenyl]-2-carboxylic acid]"
< 10,–,< 10,"COc1cc2[nH]c(-c3cccc(Cl)c3-c3ccc(C(=O)N4CCc5ccccc5C4)cc3C(=O)O)nc2cc1F [Example 113, (S)-2′-chloro-6′-(5-fluoro-6-methoxy-1H-1,3-benzodiazol-2-yl)-4-(1,2,3,4-tetrahydroisoquinoline-2-carbonyl)-[1,1′-biphenyl]-2-carboxylic acid]"
< 10,–,< 10,"COc1cc2[nH]c(-c3cccc(Cl)c3-c3ccc(C(=O)NCCC(C)C)cc3C(=O)O)nc2cc1F [Example 114, (S)-2′-chloro-6′-(5-fluoro-6-methoxy-1H-1,3-benzodiazol-2-yl)-4-[(3-methylbutyl)carbamoyl]-[1,1′-biphenyl]-2-carboxylic acid]"
–,–,10 to 100,"COc1ccc(CNC(=O)c2ccc(-c3c(Cl)cccc3-c3nc4cc(F)c(OC)cc4[nH]3)c(C(=O)O)c2)cc1 [Example 115, (S)-2′-chloro-6′-(5-fluoro-6-methoxy-1H-1,3-benzodiazol-2-yl)-4-{[(4-methoxyphenyl)methyl]carbamoyl}-[1,1′-biphenyl}-2-carboxylic acid]"
–,–,10 to 100,"COC(=O)CCNC(=O)c1ccc(-c2c(Cl)cccc2-c2nc3cc(F)c(OC)cc3[nH]2)c(C(=O)O)c1 [Example 116, (S)-2′-chloro-6′-(5-fluoro-6-methoxy-1H-1,3-benzodiazol-2-yl)-4-[(3-methoxy-3-oxopropyl)carbamoyl]-[1,1′-biphenyl]-2-carboxylic acid]"
10 to 100,–,10 to 100,"COc1cc2[nH]c(-c3cccc(Cl)c3-c3ccc(C(=O)NCC(c4ccccc4)c4ccccc4)cc3C(=O)O)nc2cc1F [Example 117, (S)-2′-chloro-4-[(2,2-diphenylethyl)carbamoyl]-6′-(5-fluoro-6-methoxy-1H-1,3-2-benzodiazol-2-yl)-[1,1′-biphenyl]-2-carboxylic acid]"
10 to 100,–,10 to 100,"COc1cc2[nH]c(-c3cccc(Cl)c3-c3ccc(C(=O)N4CCN(C)CC4)cc3C(=O)O)nc2cc1F [Example 118, (S)-2′-chloro-6′-(5-fluoro-6-methoxy-1H-1,3-benzodiazol-2-yl)-4-(4-methylpiperazine-1-carbonyl)-[1,1′-biphenyl]-2-carboxylic acid]"
10 to 100,–,10 to 100,"COc1cc2[nH]c(-c3cccc(Cl)c3-c3ccc(C(=O)NCc4ccccc4)cc3C(=O)O)nc2cc1F [Example 119, (S)-4-(benzylcarbamoyl)-2′-chloro-6′-(5-fluoro-6-methoxy-1H-1,3-benzodiazol-2-yl)-[1,1′-biphenyl]-2-carboxylic acid]"
10 to 100,–,10 to 100,"COc1cc2[nH]c(-c3cccc(Cl)c3-c3ccc(C(=O)NCc4ccc(Cl)cc4)cc3C(=O)O)nc2cc1F [Example 120, (S)-2′-chloro-4-{[(4-chlorophenyl)methyl]carbamoyl}-6′-(5-fluoro-6-methoxy-1H-1,3-benzodiazol-2-yl)-[1,1′-biphenyl]-2-carboxylic acid]"
10 to 100,–,10 to 100,"COc1cc2[nH]c(-c3cccc(Cl)c3-c3ccc(C(=O)NCC(C)C)cc3C(=O)O)nc2cc1F [Example 121, (S)-2′-chloro-6′-(5-fluoro-6-methoxy-1H-1,3-benzodiazol-2-yl)-4-[(2-methylpropyl)carbamoyl [1,1′-biphenyl]-2-carboxylic acid]"
10 to 100,–,10 to 100,"COc1cc2[nH]c(-c3cccc(Cl)c3-c3ccc(C(=O)NCCCN(C)C)cc3C(=O)O)nc2cc1F [Example 122, (S)-2′-chloro-4-{[3-(dimethylamino)propyl]carbamoyl}-6′-(5-fluoro-6-methoxy-1H-1,3-benzodiazol-2-yl)-[1,1′-biphenyl]-2-carboxylic acid]"
10 to 100,–,10 to 100,"COc1cc2[nH]c(-c3cccc(Cl)c3-c3ccc(C(=O)N4CCC(O)CC4)cc3C(=O)O)nc2cc1F [Example 123, (S)-2′-chloro-6′-(5-fluoro-6-methoxy-1H-1,3-benzodiazol-2-yl)-4-(4-hydroxypiperidine-1-carbonyl)-[1,1′-biphenyl]-2-carboxylic acid]"
10 to 100,–,10 to 100,"COc1cc2[nH]c(-c3cccc(Cl)c3-c3ccc(C(=O)N4CCCC4)cc3C(=O)O)nc2cc1F [Example 124, (S)-2′-chloro-6′-(5-fluoro-6-methoxy-2-yl)-4-(pyrrolidine-1-carbonyl)-[1,1′-biphenyl]-2-carboxylic acid]"
10 to 100,–,10 to 100,"COc1ccc(NC(=O)c2ccc(-c3c(Cl)cccc3-c3nc4cc(F)c(OC)cc4[nH]3)c(C(=O)O)c2)cc1 [Example 125, (S)-2′-chloro-6′-(5-fluoro-6-methoxy-1H-1,3-benzodiazol-2-yl)-4-[(4-methoxyphenyl)carbamoyl]-[1,1′-biphenyl]-2-carboxylic acid]"
–,–,101 to 500,"COc1cc2[nH]c(-c3cccc(Cl)c3-c3ccc(C(=O)N4CCC(Cc5ccccc5)CC4)cc3C(=O)O)nc2cc1F [Example 126, (S)-4-(4-benzylpiperidine-1-carbonyl)-2′-chloro-6′-(5-fluoro-6-methoxy-1H-1,3-benzodiazol-2-yl)-[1,1′-biphenyl]-2-carboxylic acid]"
–,–,< 10,"CCC[C@@H](NC(=O)c1ccc(-c2c(Cl)cccc2-c2nc3cc(OC)c(F)cc3[nH]2)c(C(=O)NOC)c1)c1ccccc1 [Example 127, 2′-chloro-6′-(6-fluoro-5-methoxy-1H-1,3-benzodiazol-2-yl)-N2-methoxy-N4-[(1R)-1-phenylbutyl]-[1,1′-biphenyl]-2,4-dicarboxamide]"

# Source: patent publication US11498903B2 (BRISTOL-MYERS SQUIBB COMPANY, priority 2017, dated 2022)
